In patent US10730870B2, “Compounds and methods for the enhanced degradation of targeted proteins” (Arvinas, Inc., priority 2015, dated 2020):

Target: VHL (Homo sapiens (Human), UniProt P40337)
Assay: VHL fluorescence polarization (FP) competition assay
Assay type: binding

| SMILES | IC50 (1% in DMSO) | IC50 (10% in DMSO) | VHL FP Assay IC50 (1% in DMSO) | VHL FP Assay IC50 (10% in DMSO) |
| --- | --- | --- | --- | --- |
| Cc1ncsc1-c1ccc(CNC(=O)[C@@H]2C[C@@H](O)CN2C(=O)[C@@H](NC(=O)CCC(C)C)[C@H](C)O)cc1 [Example 51, (2S,4R)-4-hydroxy-1-((2S,3S)-3-hydroxy-2-(4-methylpentanamido)butanoyl)-N-(4-(4-methylthiazol-5-yl)benzyl)pyrrolidine-2-carboxamide] | 56.6 µM | 1520 µM |  |  |
| Cc1ncsc1-c1ccc(CNC(=O)[C@@H]2C[C@@H](O)CN2C(=O)[C@@H](NC(=O)CCC(C)C)c2cccs2)cc1 [Example 52, (2S,4R)-4-hydroxy-1-((R)-2-(4-methylpentanamido)-2-(thiophen-2-yl)acetyl)-N-(4-(4-methylthiazol-5-yl)benzyl)pyrrolidine-2-carboxamide] | 2.48 µM | 3.73 µM |  |  |
| COCC#Cc1ccc2c(c1)CN([C@H](C(=O)N1C[C@H](O)C[C@H]1C(=O)NCc1ccc(-c3scnc3C)cc1)C(C)C)C2=O [Example 53, (2S,4R)-4-hydroxy-1-((S)-2-(5-(3-methoxyprop-1-ynyl)-1-oxoisoindolin-2-yl)-3-methylbutanoyl)-N-(4-(4-methylthiazol-5-yl)benzyl)pyrrolidine-2-carboxamide] | 0.474 µM | 1.03 µM |  |  |
| Cc1ncsc1-c1ccc(CNC(=O)[C@@H]2C[C@@H](O)CN2C(=O)C2(N3Cc4ccccc4C3=O)CCCCC2)cc1 [Example 54, (2S,4R)-4-hydroxy-N-(4-(4-methylthiazol-5-yl)benzyl)-1-(1-(1-oxoisoindolin-2-yl)cyclohexanecarbonyl)pyrrolidine-2-carboxamide] | 0.834 µM | 1.21 µM |  |  |
| Cc1ncsc1-c1ccc(CNC(=O)[C@@H]2C[C@@H](O)CN2C(=O)C2(N3Cc4ccccc4C3=O)CCC2)cc1 [Example 55, (2S,4R)-4-hydroxy-N-(4-(4-methylthiazol-5-yl)benzyl)-1-(1-(1-oxoisoindolin-2-yl)cyclobutanecarbonyl)pyrrolidine-2-carboxamide] | 115 µM | 461 µM |  |  |
| Cc1ncsc1-c1ccc(CNC(=O)[C@@H]2C[C@@H](O)CN2C(=O)[C@@H](NC(=O)CCC(C)C)C2CCCCC2)cc1 [Example 56, (2S,4R)-1-((S)-2-cyclohexyl-2-(4-methylpentanamido)acetyl)-4-hydroxy-N-(4-(4-methylthiazol-5-yl)benzyl)pyrrolidine-2-carboxamide] | 0.878 µM | 1.48 µM |  |  |
| COCCCc1ccc2c(c1)CN([C@H](C(=O)N1C[C@H](O)C[C@H]1C(=O)NCc1ccc(-c3scnc3C)cc1)C(C)C)C2=O [Example 57, (2S,4R)-4-hydroxy-1-((S)-2-(5-(3-methoxypropyl)-1-oxoisoindolin-2-yl)-3-methylbutanoyl)-N-(4-(4-methylthiazol-5-yl)benzyl)pyrrolidine-2-carboxamide] | 0.717 µM | 1.41 µM |  |  |
| Cc1ncsc1-c1ccc(CNC(=O)[C@@H]2C[C@@H](O)CN2C(=O)[C@H](c2cccs2)N2Cc3ccccc3C2=O)cc1 [Example 58, (2S,4R)-4-hydroxy-N-(4-(4-methylthiazol-5-yl)benzyl)-1-((R)-2-(1-oxoisoindolin-2-yl)-2-(thiophen-2-yl)acetyl)pyrrolidine-2-carboxamide] | 32.6 µM | 26.2 µM |  |  |
| Cc1ncsc1-c1ccc(CNC(=O)[C@@H]2C[C@@H](O)CN2C(=O)[C@H](CS)NC(=O)CCC(C)C)cc1 [Example 59, (2S,4R)-4-hydroxy-1-((R)-3-mercapto-2-(4-methylpentanamido)propanoyl)-N-(4-(4-methylthiazol-5-yl)benzyl)pyrrolidine-2-carboxamide] | 1.42 µM | 3.69 µM |  |  |
| Cc1ncsc1-c1ccc(CNC(=O)[C@H]2C[C@H](O)CN2C(=O)[C@@H](CSSC[C@H](NC(=O)CCC(C)C)C(=O)N2C[C@H](O)C[C@H]2C(=O)NCc2ccc(-c3scnc3C)cc2)NC(=O)CCC(C)C)cc1 [Example 60, (2S,4R)-4-hydroxy-1-((R)-3-(((S)-3-((2R,4S)-4-hydroxy-2-(4-(4-methylthiazol-5-yl)benzylcarbamoyl)pyrrolidin-1-yl)-2-(4-methylpentanamido)-3-oxopropyl)disulfanyl)-2-(4-methylpentanamido)propanoyl)-N-(4-(4-methylthiazol-5-yl)benzyl)pyrrolidine-2-carboxamide] | 1.45 µM | 0.293 µM |  |  |
| Cc1ncsc1-c1ccc(CNC(=O)[C@@H]2CC(=O)CN2C(=O)[C@H](C(C)C)N2Cc3ccccc3C2=O)cc1 [Example 61, (S)-1-((S)-3-methyl-2-(1-oxoisoindolin-2-yl)butanoyl)-N-(4-(4-methylthiazol-5-yl)benzyl)-4-oxopyrrolidine-2-carboxamide] |  |  | Not Active | Not Active |
| Cc1ncsc1-c1ccc(CNC(=O)[C@@H]2C[C@](C)(O)CN2C(=O)[C@H](C(C)C)N2Cc3ccccc3C2=O)cc1 [Example 62, (2S,4S)-4-hydroxy-4-methyl-1-((S)-3-methyl-2-(1-oxoisoindolin-2-yl)butanoyl)-N-(4-(4-methylthiazol-5-yl)benzyl)pyrrolidine-2-carboxamide] |  |  | Not Active | Not Active |
| COc1cccc(C(=O)N2C[C@H](O)C[C@H]2C(=O)NCc2ccc(-c3scnc3C)cc2)c1 [Example 63, (2S,4R)-4-hydroxy-1-(3-methoxybenzoyl)-N-(4-(4-methylthiazol-5-yl)benzyl)pyrrolidine-2-carboxamide] | 58.4 µM | 53 µM |  |  |
| Cc1ncsc1-c1ccc(CNC(=O)[C@@H]2C[C@@H](O)CN2C(=O)c2ccccc2)cc1 [Example 64, (2S,4R)-1-benzoyl-4-hydroxy-N-(4-(4-methylthiazol-5-yl)benzyl)pyrrolidine-2-carboxamide] | 16.8 µM | 30.5 µM |  |  |
| Cc1ncsc1-c1ccc(CNC(=O)[C@@H]2C[C@@H](O)CN2C(=O)[C@@H](N2Cc3ccccc3C2=O)C(C)(C)C)cc1 [Example 65, (2S,4R)-1-((S)-3,3-dimethyl-2-(1-oxoisoindolin-2-yl)butanoyl)-4-hydroxy-N-(4-(4-methylthiazol-5-yl)benzyl)pyrrolidine-2-carboxamide] | 0.631 µM | 0.578 µM |  |  |
| COc1cccc(C(=O)N2C[C@H](O)CC2(C)C(=O)NCc2ccc(-c3scnc3C)cc2)c1 (stereo partly drawn) [Example 66, (4R)-4-hydroxy-1-(3-methoxybenzoyl)-2-methyl-N-(4-(4-methylthiazol-5-yl)benzyl)pyrrolidine-2-carboxamide] |  |  | Not Active | Not Active |
| CCC1(C(=O)NCc2ccc(-c3scnc3C)cc2)C[C@@H](O)CN1C(=O)c1cccc(OC)c1 (stereo partly drawn) [Example 67, (4R)-2-ethyl-4-hydroxy-1-(3-methoxybenzoyl)-N-(4-(4-methylthiazol-5-yl)benzyl)pyrrolidine-2-carboxamide] |  |  | Not Active | Not Active |
| Cc1ncsc1-c1ccc(CNC(=O)[C@@H]2C[C@@H](O)CN2C(=O)[C@H](C(C)C)N2Cc3c(Cl)cccc3C2=O)cc1 [Example 68] | 0.972 µM | 0.668 µM |  |  |
| CC(=O)N[C@H](C(=O)N1C[C@H](O)C[C@H]1C(=O)NCc1ccc(-c2scnc2C)cc1)C(C)C [Example 69, (2S,4R)-1-((S)-2-acetamido-3-methylbutanoyl)-4-hydroxy-N-(4-(4-methylthiazol-5-yl)benzyl)pyrrolidine-2-carboxamide] | 1.43 µM | 4.28 µM |  |  |
| Cc1ncsc1-c1ccc(CNC(=O)[C@@H]2C[C@@H](O)CN2C(=O)[C@@H](NC(=O)c2cccc(C#N)c2)C(C)(C)C)cc1 [Example 71, (2S,4R)-1-((S)-2-(3-cyanobenzamido)-3,3-dimethylbutanoyl)-4-hydroxy-N-(4-(4-methylthiazol-5-yl)benzyl)pyrrolidine-2-carboxamide] | 1.62 µM | 1.38 µM |  |  |
| COc1ccc2c(c1)CN([C@H](C(=O)N1C[C@H](O)C[C@H]1C(=O)NCc1ccc(-c3scnc3C)cc1)C(C)C)C2=O [Example 72, (2S,4R)-4-hydroxy-1-((S)-2-(5-methoxy-1-oxoisoindolin-2-yl)-3-methylbutanoyl)-N-(4-(4-methylthiazol-5-yl)benzyl)pyrrolidine-2-carboxamide] | 0.86 µM | 1.03 µM |  |  |
| Cc1ncsc1-c1ccc(CNC(=O)[C@@H]2C[C@@H](O)CN2C(=O)[C@H](C(C)C)N2Cc3cc(Cl)ccc3C2=O)cc1 [Example 73, (2S,4R)-1-((S)-2-(5-chloro-1-oxoisoindolin-2-yl)-3-methylbutanoyl)-4-hydroxy-N-(4-(4-methylthiazol-5-yl)benzyl)pyrrolidine-2-carboxamide] | 1.33 µM | 1.19 µM |  |  |
| Cc1ncsc1-c1ccc(CNC(=O)[C@@H]2C[C@@H](O)CN2C(=O)[C@H](C(C)C)N2Cc3ccc(Cl)cc3C2=O)cc1 [Example 74, (2S,4R)-1-((S)-2-(6-chloro-1-oxoisoindolin-2-yl)-3-methylbutanoyl)-4-hydroxy-N-(4-(4-methylthiazol-5-yl)benzyl)pyrrolidine-2-carboxamide] | 0.45 µM | 0.264 µM |  |  |
| COc1ccc(CCC(=O)N[C@H](C(=O)N2C[C@H](O)C[C@H]2C(=O)NCc2ccc(-c3scnc3C)cc2)C(C)(C)C)cc1 [Example 76, (2S,4R)-4-hydroxy-1-((S)-2-(3-(4-methoxyphenyl)propanamido)-3,3-dimethylbutanoyl)-N-(4-(4-methylthiazol-5-yl)benzyl)pyrrolidine-2-carboxamide] | 0.169 µM |  |  |  |
| COc1cccc(CCC(=O)N[C@H](C(=O)N2C[C@H](O)C[C@H]2C(=O)NCc2ccc(-c3scnc3C)cc2)C(C)(C)C)c1 [Example 77, (2S,4R)-4-hydroxy-1-((S)-2-(3-(3-methoxyphenyl)propanamido)-3,3-dimethylbutanoyl)-N-(4-(4-methylthiazol-5-yl)benzyl)pyrrolidine-2-carboxamide] | 0.55 µM | 0.349 µM |  |  |
| Cc1ncsc1-c1ccc(CNC(=O)[C@@H]2C[C@@H](O)CN2C(=O)[C@@H](NC(=O)c2ccccn2)C(C)(C)C)cc1 [Example 78, N—((S)-1-((2S,4R)-4-hydroxy-2-(4-(4-methylthiazol-5-yl)benzylcarbamoyl)pyrrolidin-1-yl)-3,3-dimethyl-1-oxobutan-2-yl)picolinamide] | 1.03 µM | 0.81 µM |  |  |
